Measured values published in the supplement of paper PMC10331698.
± gives the standard deviation of the averaged measurements.

Assays:
Test in all cases: level (log10 ratio to DMSO vehicle control); higher = higher biomarker level / cell amount than vehicle control
[1] = compound: C=C(C)C(=O)OCCC(F)(F)C(F)(F)C(F)(F)C(F)(F)C(F)(F)C(F)(F)F [6:2 Fluorotelomer methacrylate]; conditions: in DMSO
Description: (§1)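 BioMAP Diversity Plus panel of 12 human primary cell co-culture systems (3C, 4H, LPS, SAg, BT, BF4T, BE3C, CASM3C, HDF3CGF, KF3CT, MyoF, Mphg). Compounds were added 1 h before stimulation and left for 24 h (MyoF 48 h; BT 72 h for soluble read-outs or 6 d for IgG). Biomarkers were read by ELISA, cytotoxicity by SRB, PBMC viability and proliferation by Alamar Blue. Each well value was divided by the mean of 8 DMSO control wells on the same plate and log10 transformed; duplicate blinded samples were tested at 4 concentrations.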

Hexafluoroamylene glycol = compound: OCC(F)(F)C(F)(F)C(F)(F)CO [Hexafluoroamylene glycol]; conditions: in DMSO
Description: as §1

[2] = compound: COC(=O)C(F)(F)C(F)(F)OC(F)(C(F)(F)F)C(F)(F)OC(F)=C(F)F [Methyl perfluoro(3-(1-ethenyloxypropan-2-yloxy)propanoate)]; conditions: in DMSO
Description: as §1

Nonafluoropentanamide = compound: NC(=O)C(F)(F)C(F)(F)C(F)(F)C(F)(F)F [Nonafluoropentanamide]; conditions: in DMSO
Description: as §1

[3] = compound: NS(=O)(=O)C(F)(F)C(F)(F)C(F)(F)C(F)(F)C(F)(F)C(F)(F)F [Perfluorohexanesulfonamide]; conditions: in DMSO
Description: as §1

[4] = compound: NC(=O)C(F)(F)C(F)(F)C(F)(F)C(F)F; conditions: in DMSO
Description: as §1

[5] = compound: FC(F)(F)C(F)(F)C(F)(F)C(F)(F)C(F)(F)C(F)(F)C(F)(F)I [1-Iodopentadecafluoroheptane]; conditions: in DMSO
Description: as §1

[6] = compound: O=S(=O)(O)C(F)(F)C(F)(F)C(F)(F)C(F)(F)C(F)(F)C(F)(F)C(F)(F)C(F)(F)C(F)(F)C(F)(F)F [Sodium perfluorodecanesulfonate]; conditions: in DMSO
Description: as §1

[7] = compound: FC(F)(F)C(F)(F)CNCC(F)(F)C(F)(F)F [Bis(1H,1H-perfluoropropyl)amine]; conditions: in DMSO
Description: as §1

[8] = compound: O=S(=O)(O)CCC(F)(F)C(F)(F)C(F)(F)C(F)(F)C(F)(F)C(F)(F)F [6:2 Fluorotelomer sulfonic acid]; conditions: in DMSO
Description: as §1

[9] = compound: O=S(=O)(F)C(F)(F)C(F)(F)C(F)(F)C(F)(F)C(F)(F)C(F)(F)C(F)(F)C(F)(F)F [Perfluorooctanesulfonyl fluoride]; conditions: in DMSO
Description: as §1

Heptafluorobutyl iodide = compound: FC(F)(F)C(F)(F)C(F)(F)CI [Heptafluorobutyl iodide]; conditions: in DMSO
Description: as §1

[10] = compound: O=C(O)C(F)(F)C(F)(F)C(F)(F)C(F)(F)C(F)(F)C(F)(F)C(F)(F)C(F)(F)C(F)(F)C(F)F [11-H-Perfluoroundecanoic acid]; conditions: in DMSO
Description: as §1

[11] = compound: O=S(=O)(Cl)C(F)(F)C(F)(F)C(F)(F)C(F)(F)C(F)(F)C(F)(F)C(F)(F)C(F)(F)F [Perfluoro-1-octanesulfonyl chloride]; conditions: in DMSO
Description: as §1

[12] = compound: FC(F)(F)C(F)(F)C(F)(F)C(F)(F)C(F)(F)C(F)(F)CC1CO1 [3-(Perfluorohexyl)-1,2-epoxypropane]; conditions: in DMSO
Description: as §1

[13] = compound: FC(F)(F)C(F)(F)C(F)(F)CC1CO1 [1H,1H-Heptafluorobutyl epoxide]; conditions: in DMSO
Description: as §1

[14] = compound: O=C(O)C=CC(F)(C(F)(F)F)C(F)(F)F [3-(Perfluoroisopropyl)-2-propenoic acid]; conditions: in DMSO
Description: as §1

Octafluoroadipamide = compound: NC(=O)C(F)(F)C(F)(F)C(F)(F)C(F)(F)C(N)=O [Octafluoroadipamide]; conditions: in DMSO
Description: as §1

[15] = compound: C=CC(=O)OCC(F)(F)C(F)(F)C(F)(F)COC(=O)C=C [1H,1H,5H,5H-Perfluoro-1,5-pentanediol diacrylate]; conditions: 6700 nM; in DMSO
Description: as §1

CASM3C:HLA-DR
level (log10) ([1]; 6700 nM): -0.008 ± 0.042
level (log10) ([1]; 20000 nM): -0.0015 ± 0.015
level (log10) ([1]; 60000 nM): 0.0155 ± 0.011
level (log10) (Hexafluoroamylene glycol; 6700 nM): 0.014 ± 0.016
level (log10) (Hexafluoroamylene glycol; 20000 nM): 0.0095 ± 0.015
level (log10) (Hexafluoroamylene glycol; 60000 nM): -0.0015 ± 0.028
level (log10) ([2]; 6700 nM): 0.0145 ± 0.015
level (log10) ([2]; 20000 nM): 0.0155 ± 0.022
level (log10) (Nonafluoropentanamide; 6700 nM): -0.0315 ± 0.005
level (log10) (Nonafluoropentanamide; 20000 nM): -0.0005 ± 0.036
level (log10) (Nonafluoropentanamide; 60000 nM): -0.0275 ± 0.021
level (log10) ([3]; 6700 nM): 0.002 ± 0.03
level (log10) ([3]; 20000 nM): 0 ± 0.0071
level (log10) ([3]; 60000 nM): 0.005 ± 0.0042
level (log10) ([4]; 6700 nM): -0.0125 ± 0.042
level (log10) ([4]; 20000 nM): -0.0075 ± 0.016
level (log10) ([4]; 60000 nM): -0.008 ± 0.0014
level (log10) ([5]; 6700 nM): -0.0255 ± 0.023
level (log10) ([5]; 20000 nM): 0.008 ± 0.023
level (log10) ([6]; 1500 nM): 0.0555 ± 0.047
level (log10) ([6]; 4400 nM): 0.007 ± 0.024
level (log10) ([6]; 13000 nM): 0.0505 ± 0.036
level (log10) ([6]; 40000 nM): 0.0855 ± 0.0035
level (log10) ([7]; 6700 nM): -0.013 ± 0.0057
level (log10) ([7]; 20000 nM): -0.0105 ± 0.0021
level (log10) ([7]; 60000 nM): 0.015 ± 0.058
level (log10) ([8]; 6700 nM): 0.0245 ± 0.005
level (log10) ([8]; 20000 nM): -0.0115 ± 0.0035
level (log10) ([8]; 60000 nM): -0.001 ± 0.0085
level (log10) ([9]; 6700 nM): 0.0065 ± 0.022
level (log10) ([9]; 20000 nM): -0.0035 ± 0.0092
level (log10) ([9]; 60000 nM): 0.008 ± 0.0057
level (log10) (Heptafluorobutyl iodide; 6700 nM): -0.016 ± 0.024
level (log10) (Heptafluorobutyl iodide; 20000 nM): -0.022 ± 0.0014
level (log10) (Heptafluorobutyl iodide; 60000 nM): -0.008 ± 0.0028
level (log10) ([10]; 6700 nM): -0.0085 ± 0.0021
level (log10) ([10]; 20000 nM): -0.02 ± 0.0028
level (log10) ([11]; 6700 nM): -0.022 ± 0.014
level (log10) ([11]; 20000 nM): -0.053 ± 0.017
level (log10) ([11]; 60000 nM): -0.04 ± 0.064
level (log10) ([12]; 6700 nM): -0.016 ± 0.027
level (log10) ([12]; 20000 nM): -0.033 ± 0.0071
level (log10) ([12]; 60000 nM): 0.009 ± 0.057
level (log10) ([13]; 6700 nM): -0.014 ± 0.0099
level (log10) ([13]; 20000 nM): -0.017 ± 0.0028
level (log10) ([13]; 60000 nM): -0.0165 ± 0.016
level (log10) ([14]; 6700 nM): -0.033 ± 0.011
level (log10) ([14]; 20000 nM): -0.0465 ± 0.022
level (log10) ([14]; 60000 nM): 0.0095 ± 0.044
level (log10) (Octafluoroadipamide; 6700 nM): -0.0105 ± 0.022
level (log10) (Octafluoroadipamide; 20000 nM): -0.019 ± 0.0057
level (log10) (Octafluoroadipamide; 60000 nM): 0.01 ± 0.018
level (log10) [15]: -0.0345 ± 0.018

4H:CCL26/Eotaxin-3
level (log10) ([1]; 6700 nM): 0.016
level (log10) ([1]; 20000 nM): 0.006 ± 0.048
level (log10) ([1]; 60000 nM): -0.009 ± 0.05
level (log10) (Hexafluoroamylene glycol; 6700 nM): 0.0655 ± 0.0021
level (log10) (Hexafluoroamylene glycol; 20000 nM): 0.0725 ± 0.015
level (log10) (Hexafluoroamylene glycol; 60000 nM): 0.0585 ± 0.0064
level (log10) ([2]; 6700 nM): -0.001 ± 0.016
level (log10) ([2]; 20000 nM): -0.0425 ± 0.026
level (log10) (Nonafluoropentanamide; 6700 nM): -0.0005 ± 0.0035
level (log10) (Nonafluoropentanamide; 20000 nM): 0.0195 ± 0.00071
level (log10) (Nonafluoropentanamide; 60000 nM): 0.066 ± 0.017
level (log10) ([3]; 6700 nM): -0.0015 ± 0.005
level (log10) ([3]; 20000 nM): -0.0285 ± 0.028
level (log10) ([3]; 60000 nM): -0.1 ± 0.0071
level (log10) ([4]; 6700 nM): 0.0095 ± 0.037
level (log10) ([4]; 20000 nM): 0.0315 ± 0.029
level (log10) ([4]; 60000 nM): 0.0275 ± 0.016
level (log10) ([5]; 6700 nM): 0.0365 ± 0.016
level (log10) ([5]; 20000 nM): 0.032 ± 0.027
level (log10) ([6]; 1500 nM): -0.038 ± 0.0085
level (log10) ([6]; 4400 nM): -0.052 ± 0.0014
level (log10) ([6]; 13000 nM): -0.0885 ± 0.037
level (log10) ([6]; 40000 nM): -0.129 ± 0.063
level (log10) ([7]; 6700 nM): 0.06 ± 0.045
level (log10) ([7]; 20000 nM): 0.0245 ± 0.059
level (log10) ([7]; 60000 nM): 0.041 ± 0.064
level (log10) ([8]; 6700 nM): 0.017 ± 0.0014
level (log10) ([8]; 20000 nM): -0.0285 ± 0.023
level (log10) ([8]; 60000 nM): -0.095 ± 0.018
level (log10) ([9]; 6700 nM): 0.001 ± 0.0028
level (log10) ([9]; 20000 nM): -0.0025 ± 0.00071
level (log10) ([9]; 60000 nM): 0.0005 ± 0.005
level (log10) (Heptafluorobutyl iodide; 6700 nM): 0.0215 ± 0.023
level (log10) (Heptafluorobutyl iodide; 20000 nM): 0.0385 ± 0.023
level (log10) (Heptafluorobutyl iodide; 60000 nM): 0.0485 ± 0.032
level (log10) ([10]; 6700 nM): -0.0435 ± 0.012
level (log10) ([10]; 20000 nM): -0.0535 ± 0.037
level (log10) ([11]; 6700 nM): 0.012 ± 0.014
level (log10) ([11]; 20000 nM): -0.066 ± 0.0071
level (log10) ([11]; 60000 nM): -0.0725 ± 0.043
level (log10) ([12]; 6700 nM): -0.001 ± 0.011
level (log10) ([12]; 20000 nM): -0.001 ± 0.0028
level (log10) ([12]; 60000 nM): 0.005 ± 0.0057
level (log10) ([13]; 6700 nM): 0.0055 ± 0.0064
level (log10) ([13]; 20000 nM): -0.0365 ± 0.025
level (log10) ([13]; 60000 nM): 0.032 ± 0.062
level (log10) ([14]; 6700 nM): -0.011 ± 0.0014
level (log10) ([14]; 20000 nM): -0.011 ± 0.0014
level (log10) ([14]; 60000 nM): 0.016 ± 0.0085
level (log10) (Octafluoroadipamide; 6700 nM): 0.04 ± 0.038
level (log10) (Octafluoroadipamide; 20000 nM): 0.025 ± 0.069
level (log10) (Octafluoroadipamide; 60000 nM): 0.012 ± 0.069
level (log10) [15]: -0.214 ± 0.037
